Data taken from article PMC6044894 (ACS Omega, 2017).
Numbered stars: 1 amine (or outer) side, 2 acyl side, 3 side chain; on linkers, the order of the positions; unused ones are H or OH. Bridge positions count the residues as written; N and C are the ends. Peptide text beside a SMILES is read from it. I, II: the chains in the order shown. * marks the point of attachment. Suberoyl = O=C(CCCCCCC(=O)[*:2])[*:1]; Octanoyl = CCCCCCCC(=O)*

Tests used:
Y4R [1] = target: T1, Y4R (Homo sapiens, UniProt P50391); test: β-Arrestin 2 recruitment assay on HEK293T-ARRB2-Y4R cells; type: cell-based; settings: for β-arrestin 2 assay intrinsic activity α: relative to 1 μM hPP (α = 1.0)
Y4R [2] = target: T1, Y4R; test: β-Arrestin 1 recruitment assay on HEK293T-ARRB1-Y4R cells; type: cell-based; settings: for β-arrestin 1 assay intrinsic activity α: relative to 1 μM hPP (α = 1.0)
Y2R = target: T2, Y2R (Homo sapiens, UniProt P49146); type: binding
T2 sequence (P49146 1-381): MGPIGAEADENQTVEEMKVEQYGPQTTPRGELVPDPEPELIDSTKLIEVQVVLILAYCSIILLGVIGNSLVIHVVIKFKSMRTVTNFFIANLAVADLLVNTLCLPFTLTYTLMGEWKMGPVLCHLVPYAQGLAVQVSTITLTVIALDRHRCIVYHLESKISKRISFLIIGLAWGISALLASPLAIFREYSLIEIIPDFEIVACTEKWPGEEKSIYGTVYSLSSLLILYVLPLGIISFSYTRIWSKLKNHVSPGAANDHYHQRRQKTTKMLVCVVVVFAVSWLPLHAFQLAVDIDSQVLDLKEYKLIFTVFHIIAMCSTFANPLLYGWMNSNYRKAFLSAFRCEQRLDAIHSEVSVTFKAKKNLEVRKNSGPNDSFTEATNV

Y5R = target: T3, Y5R (Homo sapiens, UniProt Q15761); type: binding
T3 sequence (Q15761 1-445): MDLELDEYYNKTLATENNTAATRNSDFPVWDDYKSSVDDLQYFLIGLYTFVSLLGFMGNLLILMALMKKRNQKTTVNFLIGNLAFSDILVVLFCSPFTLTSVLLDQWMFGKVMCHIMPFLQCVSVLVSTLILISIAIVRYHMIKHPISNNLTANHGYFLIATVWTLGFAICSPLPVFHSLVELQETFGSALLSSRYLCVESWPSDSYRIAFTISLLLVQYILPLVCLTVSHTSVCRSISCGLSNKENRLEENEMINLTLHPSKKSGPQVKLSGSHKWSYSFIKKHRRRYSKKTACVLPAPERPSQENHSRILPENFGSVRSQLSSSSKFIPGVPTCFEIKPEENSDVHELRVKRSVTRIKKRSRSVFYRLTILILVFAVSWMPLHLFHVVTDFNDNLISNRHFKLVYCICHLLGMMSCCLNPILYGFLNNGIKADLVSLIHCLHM

Y1R = target: T4, Y1R (Homo sapiens, UniProt P25929); test: Radioligand competition binding assay at Y1R with 46 using MCF-7-hY1 cells
T4 sequence (P25929 1-384): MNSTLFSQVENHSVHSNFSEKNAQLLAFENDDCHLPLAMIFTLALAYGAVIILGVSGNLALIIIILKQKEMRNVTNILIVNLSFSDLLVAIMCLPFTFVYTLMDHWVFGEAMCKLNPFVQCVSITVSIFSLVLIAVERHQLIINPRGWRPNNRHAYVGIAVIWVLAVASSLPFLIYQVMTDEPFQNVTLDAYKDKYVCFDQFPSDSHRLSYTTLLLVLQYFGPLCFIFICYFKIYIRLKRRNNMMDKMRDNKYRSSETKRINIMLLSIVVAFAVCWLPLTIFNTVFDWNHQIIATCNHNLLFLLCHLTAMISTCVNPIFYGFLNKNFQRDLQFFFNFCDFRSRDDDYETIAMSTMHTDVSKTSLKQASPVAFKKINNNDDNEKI

Y4R [3] = target: T1, Y4R; test: biochemical; type: binding
Y4R [4] = target: T1, Y4R; test: Aequorin calcium mobilization assay on CHO-hY4-Gqi5-mtAEQ cells; type: cell-based; settings: for aequorin assay intrinsic activity α: relative to 1 μM hPP (α = 1.0)

T1 sequence (P50391 whole entry): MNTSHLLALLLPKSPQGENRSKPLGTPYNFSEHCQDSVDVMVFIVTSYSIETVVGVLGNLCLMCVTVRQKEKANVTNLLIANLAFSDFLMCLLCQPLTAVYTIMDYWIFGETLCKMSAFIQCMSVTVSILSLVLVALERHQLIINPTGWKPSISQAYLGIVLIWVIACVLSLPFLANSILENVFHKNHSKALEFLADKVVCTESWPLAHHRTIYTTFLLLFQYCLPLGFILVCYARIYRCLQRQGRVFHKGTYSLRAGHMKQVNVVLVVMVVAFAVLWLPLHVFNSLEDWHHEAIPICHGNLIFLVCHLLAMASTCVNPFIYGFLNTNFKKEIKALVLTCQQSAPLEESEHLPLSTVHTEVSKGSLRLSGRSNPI

Molecule	EC50 (Y4R [1]) [µM]	β-arrestin 2 assay intrinsic activity α (Y4R [1])	EC50 (Y4R [2]) [µM]	β-arrestin 1 assay intrinsic activity α (Y4R [2])	Ki (Y2R) [µM]	Ki (Y5R) [µM]	Ki (Y1R) [µM]	Ki (Y4R [3]) [µM]	increase in Y4R affinity compared to parent compound 3 (Y4R [3]; ratio of Ki values)	EC50 (Y4R [4]) [µM]	aequorin assay intrinsic activity α (Y4R [4])
CCCCCCCC(=O)N[C@@H](Cc1ccc(O)cc1)C(=O)N[C@@H](CCCNC(=N)N)C(=O)N[C@@H](CC(C)C)C(=O)N[C@@H](CCCNC(=N)N)C(=O)N[C@@H](Cc1ccc(O)cc1)C(N)=O [Compound 33, Octanoyl-Tyr-Arg-Leu-Arg-Tyr-amide Bis(hydrotrifluoroacetate)] (Octanoyl-YRLRY-NH2)	1.79 ± 1.07	0.61	2.2 ± 0.13	0.56	> 5	3.44 ± 0.21	0.589 ± 0.12	0.0569 ± 0.0053	almost six	2.05 ± 0.084	0.44
CC(C)C[C@H](NC(=O)[C@H](CCCNC(=N)N)NC(=O)[C@H](Cc1ccc(O)cc1)NC(=O)CCCCCCC(=O)N[C@@H](Cc1ccc(O)cc1)C(=O)N[C@@H](CCCNC(=N)N)C(=O)N[C@@H](CC(C)C)C(=O)N[C@@H](CCCNC(=N)N)C(=O)N[C@@H](Cc1ccc(O)cc1)C(N)=O)C(=O)N[C@@H](CCCNC(=N)N)C(=O)N[C@@H](Cc1ccc(O)cc1)C(N)=O [Compound 2, octanedioyl-bis(Tyr-Arg-Leu-Arg-Tyr-amide), reference compound] (I: YRLRY-NH2 / II: YRLRY-NH2; linker I:N-II:N via Suberoyl)											0.73
CC(=O)N[C@@H](CCCNC(=N)N)C(=O)N[C@@H](Cc1ccc(O)cc1)C(=O)N[C@@H](CCCNC(=N)N)C(=O)N[C@@H](CC(C)C)C(=O)N[C@@H](CCCNC(=N)N)C(=O)N[C@@H](Cc1ccc(O)cc1)C(N)=O [Compound 36, Ac-Arg-Tyr-Arg-Leu-Arg-Tyr-amide Tris(hydrotrifluoroacetate)]	0.14 ± 0.045	0.54	0.187 ± 0.04	0.51	> 5	> 5	1.18 ± 0.38			0.303 ± 0.068	0.78
Ac-YRLRY-NH2 [Compound 3, Ac-Tyr-Arg-Leu-Arg-Tyr-amide, reference compound]					> 5	> 5	> 5				
